Test results published in publication PMC5130005, “Indolin-2-one compounds targeting thioredoxin reductase as potential anticancer drug leads” (Oncotarget, 2016).

Columns and labels:
bovine GPx = biological target: T1, bovine GPx (Bos taurus, UniProt P00435); experiment: in vitro bovine GPx activity assay; type: biochemical; conditions: 60 min incubation, 1-100 μM, 100 nM bovine GPx
T1 construct: purchased Sigma
T1 sequence (P00435 1-205): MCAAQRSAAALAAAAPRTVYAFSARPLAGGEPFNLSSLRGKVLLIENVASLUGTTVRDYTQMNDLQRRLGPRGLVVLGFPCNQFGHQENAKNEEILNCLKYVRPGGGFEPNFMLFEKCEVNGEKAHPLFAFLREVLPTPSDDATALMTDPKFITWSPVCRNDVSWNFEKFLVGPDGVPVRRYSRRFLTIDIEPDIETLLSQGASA
Protocol: For determination of in vitro bovine GPx activity, compounds of concentrations 1-100 μM were incubated with 100 nM bovine GPx, 20 nM yeast GR, 1 mM GSH and 200 μM NADPH in a volume of 100 μl phosphate buffer (0.1 M sodium phosphate, 2 mM EDTA pH 7.5) for 1 h at room temperature. H2O2 solution in phosphate buffer was added to initiate the reaction (final concentration 1.5 mM). NADPH consumption was monitored at 340 nm using the VersaMax microplate reader. The cellular GPx activity was determined similarly except lysates of HCT 116 and MCF-7 cells (25 μg protein) were used instead of bovine GPx. The results were calculated based on decrease in absorbance in the initial 3 min and presented as % of GPx activity of drug-treated sample over that of DMSO-treated sample.

yeast GR = biological target: T2, yeast GR (Saccharomyces cerevisiae, UniProt P41921); experiment: in vitro yeast GR activity (glutathione reduction assay); type: biochemical; conditions: 60 min incubation, 1-100 μM, 20 nM yeast GR, 200 μM NADPH
T2 construct: purchased Sigma
T2 sequence (P41921 17-483 limits assumed): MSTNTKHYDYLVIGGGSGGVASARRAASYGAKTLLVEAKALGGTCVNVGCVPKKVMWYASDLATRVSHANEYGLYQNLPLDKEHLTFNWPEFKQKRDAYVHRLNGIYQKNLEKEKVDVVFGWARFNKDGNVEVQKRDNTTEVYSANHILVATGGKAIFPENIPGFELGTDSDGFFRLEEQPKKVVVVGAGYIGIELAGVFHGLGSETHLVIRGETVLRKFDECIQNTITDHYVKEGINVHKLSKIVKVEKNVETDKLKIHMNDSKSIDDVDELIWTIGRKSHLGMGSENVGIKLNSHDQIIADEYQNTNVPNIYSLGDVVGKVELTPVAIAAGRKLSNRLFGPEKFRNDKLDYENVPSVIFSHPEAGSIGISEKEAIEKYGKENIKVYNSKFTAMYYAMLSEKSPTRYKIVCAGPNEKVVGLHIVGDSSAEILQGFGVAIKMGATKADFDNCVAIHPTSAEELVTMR
Protocol: To determine in vitro yeast GR activity, compounds of concentrations 1-100 μM were incubated with 20 nM yeast GR and 200 μM NADPH in a volume of 100 μl phosphate buffer (0.1 M sodium phosphate, 2 mM EDTA pH 7.5) for 1 h at room temperature. At the end of the incubation, 100 μl of […] GSSG (final concentration 500 μM) and 200 μM NADPH in phosphate buffer was added to each well. NADPH consumption was monitored by measurement of absorbance at 340 nm using the VersaMax microplate reader. The results were calculated based on decrease in absorbance in the initial 90 s and expressed as a percentage of the enzyme activity of the DMSO-treated sample. For determination of cellular GR activity, 25 μg of cell lysate was mixed with a solution of GSSG and NADPH in phosphate buffer to a final volume of 200 μl (final GSSG and NADPH concentrations 1 mM and 200 μM respectively). The enzyme activity was determined by measuring the decrease in absorbance at 340 nm for 10 min at 37°C and expressed as a percentage of the enzyme activity of that of the DMSO-treated sample.

Row | Compound | bovine GPx activity (bovine GPx) | yeast GR activity (yeast GR)
1 | CC(=O)C=C1C(=O)N(C)c2ccccc21 [Compound 1, 1-methyl-3(2-oxopropylidene)indolin-2-one] | uninhibited | uninhibited
2 | CCCCN1C(=O)/C(=C/C(C)=O)c2ccccc21 [Compound 4] | uninhibited | uninhibited
3 | CC(=O)/C=C1/C(=O)N(Cc2ccccc2)c2ccccc21 [Compound 5] | uninhibited | uninhibited
4 | CN1C(=O)/C(=C/C(=O)c2ccccc2)c2ccccc21 [Compound 6] | uninhibited | uninhibited
